According to patent publication US11554171B2, “Compounds and methods for the targeted degradation of bromodomain-containing proteins” (Arvinas Operations, Inc., priority 2015, dated 2023):

Test system: c-myc in 22RV-1 cells
Test: Human c-myc ELISA assay
Assay type: cell-based
Settings: Homo sapiens; for Emax: 22Rv1, 18 h, read-out: Degradation of BRD4: Maximum inhibition (%) c-Myc ELISA in 22RV1 cells; for DC50: 22Rv1, read-out: Degradation of BRD4: DC50 (uM) c-Myc ELISA in 22RV1 cells
How it was run: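 22RV-1 cells treated 18 h with 8-point 1:3 compound dilutions (final top 300 nM or 1 μM, 0.1% DMSO). Cells lysed in RIPA buffer with protease/phosphatase inhibitors, and c-myc protein in cleared lysate quantified by ELISA against a standard curve. DC50 reported for c-myc suppression.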

DC50	SMILES	Emax
> 1 µM	Cc1ncsc1-c1ccc([C@H](C)NC(=O)[C@@H]2C[C@@H](O)CN2C(=O)[C@@H](NC(=O)COCCOCCCOc2ccc([C@H](C)NC(=O)C[C@H]3N=C(c4ccc(Cl)cc4)c4c(sc(C)c4C)-n4c(C)nnc43)cc2)C(C)(C)C)cc1 [Example 109]	< 5%
> 1 µM	CNC[C@H](NC(=O)[C@@H]1C[C@@H](O)CN1C(=O)[C@@H](NC(=O)COCCCOCCNC(=O)C[C@@H]1N=C(c2ccc(Cl)cc2)c2c(sc(C)c2C)-n2c(C)nnc21)C(C)(C)C)c1ccc(-c2scnc2C)cc1 [Example 110]	7.14%
> 1 µM	CNC[C@@H](NC(=O)[C@@H]1C[C@@H](O)CN1C(=O)[C@@H](NC(=O)COCCCOCCNC(=O)C[C@@H]1N=C(c2ccc(Cl)cc2)c2c(sc(C)c2C)-n2c(C)nnc21)C(C)(C)C)c1ccc(-c2scnc2C)cc1 [Example 111]	47.3%
> 1 µM	Cc1ncsc1-c1ccc(CNC(=O)[C@@H]2C[C@@H](O)CN2C(=O)[C@@H](NC(=O)COCCC[S+]([O-])CCNC(=O)C[C@@H]2N=C(c3ccc(Cl)cc3)c3c(sc(C)c3C)-n3c(C)nnc32)C(C)(C)C)cc1 (stereo partly shown) [Example 112]	26.8%
0.01 to 0.1 µM	Cc1ncsc1-c1ccc(CNC(=O)[C@@H]2C[C@@H](O)CN2C(=O)[C@@H](NC(=O)COc2ccc(S(=O)(=O)CCNC(=O)C[C@@H]3N=C(c4ccc(Cl)cc4)c4c(sc(C)c4C)-n4c(C)nnc43)cc2)C(C)(C)C)cc1 [Example 113]	88.5%
< 0.01 µM	Cc1ncsc1-c1ccc([C@H](C)NC(=O)[C@@H]2C[C@@H](O)CN2C(=O)[C@@H](NC(=O)c2ccc(OCCCNC(=O)C[C@@H]3N=C(c4ccc(Cl)cc4)c4c(sc(C)c4C)-n4c(C)nnc43)cn2)C(C)(C)C)cc1 [Example 114, 5-(3-{2-[(9S)-7-(4-chlorophenyl)-4,5,13-trimethyl-3-thia-1,8,11,12-tetraazatricyclo[8.3.0.0^2,^6]trideca-2(6),4,7,10,12-pentaen-9-yl]acetamido}propoxy)-N-[(2S)-1-[(2S,4R)-4-hydroxy-2-{[(1S)-1-[4-(4-methyl-1,3-thiazol-5-yl)phenyl]ethyl]carbamoyl}pyrrolidin-1-yl]-3,3-dimethyl-1-oxobutan-2-yl]pyridine-2-carboxamide]	99.5%
< 0.01 µM	Cc1ncsc1-c1ccc([C@H](C)NC(=O)[C@@H]2C[C@@H](O)CN2C(=O)[C@@H](NC(=O)c2ccc(OCCCCNC(=O)C[C@@H]3N=C(c4ccc(Cl)cc4)c4c(sc(C)c4C)-n4c(C)nnc43)cn2)C(C)(C)C)cc1 [Example 115]	100%
0.01 to 0.1 µM	Cc1ncsc1-c1ccc(CNC(=O)[C@@H]2C[C@@H](O)CN2C(=O)[C@@H](NC(=O)COCCCOCCOc2ccc3c(c2)c2c(C(N)=O)cc(-c4c(C)noc4C)cc2n3Cc2ccccc2)C(C)(C)C)cc1 [Example 116, 9-benzyl-2-(dimethyl-1,2-oxazol-4-yl)-6-{2-[3-({[(2S)-1-[(2S,4R)-4-hydroxy-2-({[4-(4-methyl-1,3-thiazol-5-yl)phenyl]methyl}carbamoyl)pyrrolidin-1-yl]-3,3-dimethyl-1-oxobutan-2-yl]carbamoyl}methoxy)propoxy]ethoxy}-9H-carbazole-4-carboxamide]	100%
< 0.01 µM	Cc1ncsc1-c1ccc(CNC(=O)[C@@H]2C[C@@H](O)CN2C(=O)[C@@H](NC(=O)COc2ccc(O[C@H]3C[C@@H](NC(=O)C[C@@H]4N=C(c5ccc(Cl)cc5)c5c(sc(C)c5C)-n5c(C)nnc54)C3)nc2)C(C)(C)C)cc1 [Example 118]	94.4%
0.1 to 1 µM	Cc1ncsc1-c1ccc(CNC(=O)[C@@H]2C[C@@H](O)CN2C(=O)[C@H](c2cc(OCCCCCNC(=O)C[C@@H]3N=C(c4ccc(Cl)cc4)c4c(sc(C)c4C)-n4c(C)nnc43)no2)C(C)C)cc1 [Example 120]	79.5%
< 0.01 µM	Cc1ncsc1-c1ccc(CNC(=O)[C@@H]2C[C@@H](O)CN2C(=O)[C@@H](c2cc(OCCCCCNC(=O)C[C@@H]3N=C(c4ccc(Cl)cc4)c4c(sc(C)c4C)-n4c(C)nnc43)no2)C(C)C)cc1 [Example 121]	98.5%
< 0.01 µM	Cc1ncsc1-c1ccc([C@H](C)NC(=O)[C@@H]2C[C@@H](O)CN2C(=O)[C@@H](NC(=O)/C=C/c2cccc(OCCNC(=O)C[C@@H]3N=C(c4ccc(Cl)cc4)c4c(sc(C)c4C)-n4c(C)nnc43)c2)C(C)(C)C)cc1 [Example 122]	100%
> 1 µM	Cc1ncsc1-c1ccc(CNC(=O)[C@@H]2C[C@@H](O)CN2C(=O)[C@@H](NC(=O)CCN2CCC(OCCNC(=O)C[C@@H]3N=C(c4ccc(Cl)cc4)c4c(sc(C)c4C)-n4c(C)nnc43)CC2)C(C)(C)C)cc1 [Example 123]	19.7%
< 0.01 µM	Cc1ncsc1-c1ccc([C@H](C)NC(=O)[C@@H]2C[C@@H](O)CN2C(=O)[C@@H](NC(=O)COCCOc2cccc(NC(=O)C[C@@H]3N=C(c4ccc(Cl)cc4)c4c(sc(C)c4C)-n4c(C)nnc43)c2)C(C)(C)C)cc1 [Example 124]	98%
< 0.01 µM	Cc1ncsc1-c1ccc(CNC(=O)[C@@H]2C[C@@H](O)CN2C(=O)[C@@H](NC(=O)COCCCCCOc2cccc(NC(=O)C[C@@H]3N=C(c4ccc(Cl)cc4)c4c(sc(C)c4C)-n4c(C)nnc43)c2)C(C)(C)C)cc1 [Example 125]	99.5%
< 0.01 µM	Cc1ncsc1-c1ccc(CNC(=O)[C@@H]2C[C@@H](O)CN2C(=O)[C@@H](NC(=O)COCCCCOc2cccc(NC(=O)C[C@@H]3N=C(c4ccc(Cl)cc4)c4c(sc(C)c4C)-n4c(C)nnc43)c2)C(C)(C)C)cc1 [Example 126]	99%
< 0.01 µM	Cc1ncsc1-c1ccc([C@H](C)NC(=O)[C@@H]2C[C@@H](O)CN2C(=O)[C@@H](NC(=O)COc2cccc(OCCNC(=O)C[C@@H]3N=C(c4ccc(Cl)cc4)c4c(sc(C)c4C)-n4c(C)nnc43)c2)C(C)(C)C)cc1 [Example 127, (2S,4R)-1-[(2S)-2-{2-[3-(2-{2-[(9S)-7-(4-chlorophenyl)-4,5,13-trimethyl-3-thia-1,8,11,12-tetraazatricyclo[8.3.0.0^2,^6]trideca-2(6),4,7,10,12-pentaen-9-yl]acetamido}ethoxy)phenoxy]acetamido}-3,3-dimethylbutanoyl]-4-hydroxy-N-[(1S)-1-[4-(4-methyl-1,3-thiazol-5-yl)phenyl]ethyl]pyrrolidine-2-carboxamide]	99%
< 0.01 µM	Cc1ncsc1-c1ccc([C@H](C)NC(=O)[C@@H]2C[C@@H](O)CN2C(=O)[C@@H](NC(=O)COc2ccc(OCCNC(=O)C[C@@H]3N=C(c4ccc(Cl)cc4)c4c(sc(C)c4C)-n4c(C)nnc43)nc2)C(C)(C)C)cc1 [Example 128, (2S,4R)-1-[(2S)-2-(2-{[6-(2-{2-[(9S)-7-(4-chlorophenyl)-4,5,13-trimethyl-3-thia-1,8,11,12-tetraazatricyclo[8.3.0.0^2,^6]trideca-2(6),4,7,10,12-pentaen-9-yl]acetamido}ethoxy)pyridin-3-yl]oxy}acetamido)-3,3-dimethylbutanoyl]-4-hydroxy-N-[(1S)-1-[4-(4-methyl-1,3-thiazol-5-yl)phenyl]ethyl]pyrrolidine-2-carboxamide]	100%
< 0.01 µM	Cc1ncsc1-c1ccc([C@H](C)NC(=O)[C@@H]2C[C@@H](O)CN2C(=O)[C@@H](NC(=O)COCCCOCCOc2cccc(NC(=O)C[C@@H]3N=C(c4ccc(Cl)cc4)c4c(sc(C)c4C)-n4c(C)nnc43)c2)C(C)(C)C)cc1 [Example 129]	96%
< 0.01 µM	Cc1ncsc1-c1ccc(CNC(=O)[C@@H]2C[C@@H](O)CN2C(=O)[C@@H](NC(=O)COCCCOCCOc2cc(NC(=O)C[C@@H]3N=C(c4ccc(Cl)cc4)c4c(sc(C)c4C)-n4c(C)nnc43)ccc2F)C(C)(C)C)cc1 [Example 130]	99%
< 0.01 µM	Cc1ncsc1-c1ccc([C@H](C)NC(=O)[C@@H]2C[C@@H](O)CN2C(=O)[C@@H](NC(=O)c2ccc(OCCCNC(=O)C[C@@H]3N=C(c4ccc(Cl)cc4)c4c(sc(C)c4C)-n4c(C)nnc43)cc2)C(C)(C)C)cc1 [Example 132, (2S,4R)-1-[(2S)-2-{[4-(3-{2-[(9S)-7-(4-chlorophenyl)-4,5,13-trimethyl-3-thia-1,8,11,12-tetraazatricyclo[8.3.0.0^2,^6]trideca-2(6),4,7,10,12-pentaen-9-yl]acetamido}propoxy)phenyl]formamido}-3,3-dimethylbutanoyl]-4-hydroxy-N-[(1S)-1-[4-(4-methyl-1,3-thiazol-5-yl)phenyl]ethyl]pyrrolidine-2-carboxamide]	99%

SMILES	DC50	Emax
Cc1ncsc1-c1ccc(CNC(=O)[C@@H]2C[C@@H](O)CN2C(=O)[C@@H](NC(=O)COCCCOCCCCOc2ccc3c(c2)c2c(C(N)=O)cc(-c4c(C)noc4C)cc2n3Cc2ccccc2)C(C)(C)C)cc1 [Example 117, 9-benzyl-2-(dimethyl-1,2-oxazol-4-yl)-6-{4-[3-({[(2S)-1-[(2S,4R)-4-hydroxy-2-({[4-(4-methyl-1,3-thiazol-5-yl)phenyl]methyl}carbamoyl)pyrrolidin-1-yl]-3,3-dimethyl-1-oxobutan-2-yl]carbamoyl}methoxy)propoxy]butoxy}-9H-carbazole-4-carboxamide]	< 0.01 µM	100%
Cc1ncsc1-c1ccc([C@H](C)NC(=O)[C@@H]2C[C@@H](O)CN2C(=O)[C@@H](NC(=O)COc2ccc(O[C@H]3C[C@@H](NC(=O)C[C@@H]4N=C(c5ccc(Cl)cc5)c5c(sc(C)c5C)-n5c(C)nnc54)C3)nc2)C(C)(C)C)cc1 [Example 119, (2S,4R)-1-[(2S)-3,3-dimethyl-2-[2-({6-[(1,3-cis)-3-{2-[(9S)-7-(4-chlorophenyl)-4,5,13-trimethyl-3-thia-1,8,11,12-tetraazatricyclo[8.3.0.0^2,^6]trideca-2(6),4,7,10,12-pentaen-9-yl]acetamido}cyclobutoxy]pyridin-3-yl}oxy)acetamido]butanoyl]-4-hydroxy-N-[(1S)-1-[4-(4-methyl-1,3-thiazol-5-yl)phenyl]ethyl]pyrrolidine-2-carboxamide]	< 0.01 µM	96%
